The data set can be described thus: HILIC, Merck SeQuant ZIC-pHILIC, 100 × 2.1 mm, 5 µm, 25 °C; gradient (min/%B) 0/3 1/3 12/30 14.5/90 17/90 18.5/3 24/3. As to conditions: stereoisomer not certain.

Molecules are shown by their SMILES. Structures can show the parent of a compound that is named as a salt.

Consider `COc1ccc(Cc2cnc(N)nc2N)cc1OC` [Diaveridine], for which the LC retention time came out at 8.91 min.

In turn, `c1ccc(CNCc2ccccc2)cc1` [Dibenzylamine] gave an LC retention time of 7.37 min.

As to `C(=NC1CCCCC1)=NC1CCCCC1` [Dicyclohexylcarbodiimide-n n'], the LC retention time stood at 1.09 min.

Molecule `OCCNCCO` [Diethanolamine] showed an LC retention time of 11.3 min.

The molecule `NC(Cc1ccc(O)c(O)c1)C(=O)O` [Dihydroxyphenyl-analine L-3 4] gave an LC retention time of 12.7 min.

Regarding `CN(C)Cc1ccccc1` [Dimethylbenzylamine N N-], the LC retention time was 7.54 min.

The molecule `NCCO` [Ethanolamine] showed an LC retention time of 12.9 min.

`Nc1nc2ncc(CNc3ccc(C(=O)NC(CCC(=O)O)C(=O)O)cc3)nc2c(=O)[nH]1` (stereo not given) [Folic Acid] gave an LC retention time of 11.4 min.

Molecule `NCCCC(=O)O` [Gamma-amino-n-butyric acid] gave an LC retention time of 11.6 min.

For `NC(=O)CCC(N)C(=O)O` [Glutamine L-], the LC retention time amounted to 12.9 min.

Molecule `NC(N)=NCC(=O)O` [Glycocyamine] came in with an LC retention time of 12.8 min.

Regarding `NCC(=O)NCC(=O)O` [Glycylglycine], the LC retention time turned out to be 14.4 min.

`Nc1nc2nc[nH]c2c(=O)[nH]1` [Guanine] came in with an LC retention time of 9.81 min.

In turn, `Nc1nc2c(ncn2C2OC(CO)C(O)C2O)c(=O)[nH]1` (stereo not given) [Guanosine] gave an LC retention time of 10.6 min.

The molecule `O=c1[nH]cnc2nc[nH]c12` [Hypoxanthine] gave an LC retention time of 7.88 min.

Consider `c1c[nH]cn1` [Imidazole], for which the LC retention time was 10.4 min.

`O=C(O)CNCC(=O)O` [Iminodiacetic acid]: the LC retention time came out at 13.7 min.

In turn, `NC(=O)Cc1c[nH]c2ccccc12` [Indole-3-acetamide] yielded an LC retention time of 2.48 min.

In turn, `O=c1[nH]cnc2c1ncn2C1OC(CO)C(O)C1O` (stereo not given) [Inosine] showed an LC retention time of 9.18 min.

In turn, `O=C(O)C1CCNCC1` [Isonipecotic acid] returned an LC retention time of 11 min.

Consider `N[C@@H](CCCC(=O)O)C(=O)O` [L-2-Aminoadipic acid], for which the LC retention time came to 12.4 min.

Regarding `O=P([O-])([O-])OCC(O)CO` [L-Alpha-Glycerophosphate], the LC retention time amounted to 13.5 min.

In turn, `NC(N)=NCCC[C@H](N)C(=O)O` [L-Arginine] yielded an LC retention time of 16 min.

For the molecule `NC(=O)C[C@H](N)C(=O)O` [L-Asparagine], the LC retention time worked out at 13.2 min.

With `N[C@@H](Cc1cnc[nH]1)C(=O)O` [L-Histidine monohydrochloride], the LC retention time was 15.7 min.

As for `N[C@@H](CCO)C(=O)O` [L-Homoserine], the LC retention time was 12.6 min.

On to `NCCCC[C@H](N)C(=O)O` [L-Lysine], for which the LC retention time is 15.9 min.

With `CCCC[C@H](N)C(=O)O` [L-Norleucine], the LC retention time is 9.62 min.

In the case of `NCCC[C@H](N)C(=O)O` [L-Ornithine], the LC retention time is 15.9 min.

For `O=C(O)[C@@H]1CCCN1` [L-Proline], the LC retention time turned out to be 10.4 min.

In the case of `CCNC(=O)CC[C@H](N)C(=O)O` [L-Theanine], the LC retention time was found to be 10.6 min.

Turning to `CCC(N)C(=O)O` [L-a-Amino-n-butyric acid], the LC retention time is 11.6 min.

The molecule `Cl.N[C@@H](CS)C(=O)O.O` [L-cysteine hydrochloride hydrate] came in with an LC retention time of 11.9 min.

In the case of `CC(C)(C)[C@H](N)C(=O)O` [L-tert-Leucine], the LC retention time was determined as 10 min.

`C[C@@H](O)[C@H](N)C(=O)O` [L-threonine] displayed an LC retention time of 12.5 min.

Molecule `N[C@@H](Cc1ccc(O)cc1)C(=O)O` [L-tyrosine] came in with an LC retention time of 11.2 min.

With `CC(O)C(=O)O` (stereo not given) [Lactic acid], the LC retention time was 7.45 min.

As for `O=C(O)C(O)C(O)C(OC1OC(CO)C(O)C(O)C1O)C(O)CO` (stereo not given) [Lactobionic acid], the LC retention time came out at 14.3 min.

Molecule `O=c1c(O)c(-c2ccc(O)cc2O)oc2cc(O)cc(O)c12` [Morin] had an LC retention time of 6.55 min.

In turn, `C1COCCN1` [Morpholine] gave an LC retention time of 10.4 min.

Take `CC1OC(OC2C(Oc3cc(O)c4c(c3)OC(c3ccc(O)cc3)CC4=O)OC(CO)C(O)C2O)C(O)C(O)C1O` (stereo not given) [Naringin CHR]: the LC retention time was found to be 7.51 min.

The molecule `NC(=O)c1ccc[n+](C2OC(COP(=O)(O)OP(=O)([O-])OCC3OC(n4cnc5c(N)ncnc54)C(O)C3O)C(O)C2O)c1` (stereo not given) [Nicotinamide adenine dinucleotide] registered an LC retention time of 14.1 min.

`O=C(O)c1cccnc1` [Nicotinic acid] came in with an LC retention time of 2.35 min.

In turn, `COC(C)C(N)C(=O)O` (stereo not given) [O-methyl threonine] returned an LC retention time of 10.4 min.

The molecule `C[C@@H](OP(=O)(O)O)[C@H](N)C(=O)O` [O-phospho-L-threonine] gave an LC retention time of 14.5 min.

With `Nc1ccc(C(=O)O)cc1` [P-Aminobenzoic acid], the LC retention time came to 2.26 min.

With `O=C(CCc1ccc(O)cc1)c1c(O)cc(O)cc1OC1OC(CO)C(O)C(O)C1O` (stereo not given) [Phloridzin], the LC retention time came to 7.09 min.

As for `Cc1ncc(COP(=O)(O)O)c(C=O)c1O` [Pyridoxal-5'-phosphate], the LC retention time was found to be 10.3 min.

Regarding `Cc1ncc(CO)c(CO)c1O` [Pyridoxine], the LC retention time worked out at 9.21 min.

With `O=C(O)c1ccc2ccccc2n1` [Quinaldic acid], the LC retention time was 1.9 min.

The molecule `Cc1cc2nc3c(=O)[nH]c(=O)nc-3n(CC(O)C(O)C(O)CO)c2cc1C` (stereo not given) [Riboflavin] came in with an LC retention time of 7.85 min.

In turn, `CC1OC(OCC2OC(Oc3c(-c4ccc(O)c(O)c4)oc4cc(O)cc(O)c4c3=O)C(O)C(O)C2O)C(O)C(O)C1O` (stereo not given) [Rutin Trihydrate] came in with an LC retention time of 9.3 min.

In turn, `NC(CO)C(=O)O` [Serine L-] displayed an LC retention time of 13.2 min.

In the case of `NCCS(=O)(=O)O` [Taurine], the LC retention time turned out to be 12.6 min.

`Cn1c(=O)c2[nH]cnc2n(C)c1=O` [Theophylline] came in with an LC retention time of 2.28 min.

The molecule `Cc1cn(C2CC(O)C(COP(=O)(O)O)O2)c(=O)[nH]c1=O` (stereo not given) [Thymidine monophosphate] had an LC retention time of 11.9 min.

`Cc1cn(C2CC(O)C(CO)O2)c(=O)[nH]c1=O` (stereo not given) [Thymidine] yielded an LC retention time of 4.41 min.

In turn, `Cc1c[nH]c(=O)[nH]c1=O` [Thymine] displayed an LC retention time of 3.51 min.

`O=C(O)[C@@H]1C[C@@H](O)CN1` [Trans-4-hydroxy-L-proline] returned an LC retention time of 12.1 min.

Take `NCCc1c[nH]c2ccccc12` [Tryptamine]: the LC retention time was determined as 9.86 min.

As for `NCCc1ccc(O)cc1` [Tyramine], the LC retention time came to 10.5 min.

`NC(N)=O` [Urea] yielded an LC retention time of 7.16 min.

`O=c1[nH]c(=O)c2[nH]cnc2[nH]1` [Xanthine] yielded an LC retention time of 8.29 min.

In turn, `O=c1c2ccccc2oc2ccccc12` [Xanthone] came in with an LC retention time of 1.22 min.

In the case of `Nc1ccc(C(=O)NCC(=O)O)cc1` [p-aminohippuric acid], the LC retention time was determined as 5.67 min.

The values are drawn from the RepoRT retention time repository (doi:10.1007/s11306-014-0727-x).
